Legend:
PTZ induced seizures = conditions: literature / earlier application; cited from earlier work
[1] = system: amygdala-kindled seizures; conditions: rats; cited from earlier work
[2] = system: amygdala-kindled seizures; experiment: Amygdala-kindling in fully kindled rats (anti-seizure effects); format: in vivo, rat; conditions: 100 mg/kg
Protocol: For implantation of stimulation and recording electrodes, rats were anesthetized with chloral hydrate (360 mg/kg i.p.) and received stereotaxic implantation (according to the surgery methods described in the atlas of Paxinos and Watson [1986]) of one bipolar electrode in the right basolateral amygdala. Coordinates for electrode implantation were AP-2.2 mm, L-4.8 mm, V-8.5 mm. All coordinates were measured from bregma. Skull screws served as the indifferent reference electrode. The electrode assembly was attached to the skull by dental acrylic cement. After a postoperative period of 2 weeks, constant current stimulations (500 μA, 1 ms, monophasic square-wave pulses, 50/s for 1 s) were delivered to the amygdala at intervals of 1/day until ten stage 5 seizures were elicited. The electrical susceptibility of the stimulated region (threshold for induction of afterdischarges) was recorded on the first day of the experiment (initial afterdischarge threshold) as well as after kindling acquisition (with an interval of at least 4 days after the tenth stage 5 seizure) using an ascending staircase procedure. The initial current intensity was 1 OμA, and the current intensity was increased in steps of about 20% of the previous current at intervals of 1 min until an afterdischarge of at least 3 s duration was elicited. […] In addition to afterdischarge threshold, the following parameters of kindled seizures were measured in fully-kindled rats after stimulation with the afterdischarge threshold current: seizure severity was classified according to Racine (1972): 1 -immobility, eye closure, twitching of vibrissae, sniffing, facial clonus; 2-head nodding associated with more severe facial clonus; 3-clonus of one forelimb; 4-rearing, often accompanied by bilateral forelimb clonus; 5-rearing with loss of balance and falling accompanied by generalized clonic seizures. Seizure duration 1 (SD 1) was the duration of limbic (stage 1-2) and/or motor seizures (stage 3-5). Seizure duration 2 (SD 2) included the time of limbic and/or motor seizures plus the adjacent time of immobility. Afterdischarge duration 1 (ADD 1) was the time of spikes in the EEG recorded from the site of stimulation with a frequency of at least 1 /s. Afterdischarge duration 2 (ADD 2) was the total time of spikes occurring in the EEG including those, which followed the ADD 1 with lower frequency and amplitude.
The anti-seizure effects of 2-propyl-4-hexynoic acid and valproate in fully kindled rats were determined in a group of 8-9 rats (no. 784, 785, 787, 788, 789, 790 [had to be taken out of the trial, because of loss of electrodes], 791, 792, 793) with reproducible stage 5 seizures.
Drugs were injected 15 min prior to stimulation intraperitoneally. Control experiments were always performed 2-3 days before each drug experiment. For control determinations, rats received i.p. injections of vehicle (saline) with the pretreatment time of the respective drug experiment. For all drug experiments, at least 4 days were interposed between 2 drug injections in order to avoid alterations in drug potency due to cumulation or tolerance.
The significance of differences between pre-drug control recordings and recordings after drug injection was calculated by the Wilcoxon signed rank test for paired replicates (SigmaStat for Windows, version 1.0).

[3] = Rotarod test (neurological deficit) in kindled rats; format: in vivo, rat; conditions: 100 mg/kg; 13′; all 8 animals +
Protocol: (§1) Tests included open field observations, rotarod test and body temperature. Tests were always performed in the same manner in control and drug experiments at two different times, just before application of drug or vehicle and 13 minutes after application.
The rotarod test was carried out with a rod of 6 cm diameter and rotation speed of 8 r.p.m. Neurological deficit was indicated by inability of the animals to maintain their equilibrium for at least 1 min on the rotating rod. Rats had to be trained prior to drug experiments to maintain their balance on the rod. After drug or vehicle treatment, rats which were not able to maintain their equilibrium on the rod for 1 minute were put again on the rod twice.

Rectal body temperature = format: in vivo, rat; conditions: 100 mg/kg; 13′ post appl.; mean of 8 rats; ante appl. 38.71
Protocol: Female Wistar rats (Harlan-Winkelmann, Borchen, Germany) were obtained at an age of 11-12 weeks (body weight 180-200 g). Female rats were employed because they are known to eliminate drugs less rapidly than do males, which was thought to be an advantage for drug potency studies. Rats were kept separately in plastic cages at controlled temperature (23° C.) and humidity (about 50 %) with a 12-h light cycle beginning at 7 a.m. They received standard diet (Altromin; Lage, F.R.G.), tap water and libitum. All drug injections were done in the afternoon at an ambient temperature of 23-25° C. The regular protocol started by taking the rats out of their individual cage, weighing them and joining them together on a table with six open plastic cages for better behavioral observations. Therefore animals were able to move from one cage to another and either to have social contact or to avoid it. After a short adaptation time of approximately 15 minutes, rectal body temperatures were recorded followed by drug or vehicle application.
as §1
In addition to these quantitative estimations of neurological deficit, behavioral alterations observed after administration of 2-propyl-4-hexynoic acid and valproate noted in the cage and by placing the animals in an open field of 90-100 cm diameter. Muscle tone was estimated by palpation of the abdomen. The extent of deficits in behavior after administration of the compounds was determined by a rating system (Loscher et al. 1987). In short, animals were taken out of the cage, placed in an open field, observed for about 1 minute and rated separately for ataxia, abducted hindlimbs, reduced righting, flat body posture, circling, Straub tail, piloerection, hypolocomotion and hyperlocomotion (abdominal muscle tone was evaluated by palpation at the end of the period of observation). All other parameters except ataxia were scored from 0 to 3: 0-absent; 1-equivocal; 2-present; 3- intense. For ataxia (06): 1 -slight ataxia in hind-legs (tottering of the hind quarters); 2-more pronounced ataxia with dragging of hind legs; 3-further increase of ataxia and more pronounced dragging of hind legs; 4-marked ataxia, animals lose balance during forward locomotion; 5- very marked ataxia with frequent loss of balance during forward locomotion; 6-permanent loss of righting reflexes, but animal still attempts to move forward. Rectal body temperature was measured by an electronic thermometer. Body weight of the animals was recorded once daily before drug injection. Significance of differences in behavior between pre-drug and post-drug data determined in the same group of animals was calculated by the Wilcoxon signed rank test for paired replicates and for body temperature by Student's paired t-test (SigmaStat for Windows, version 1.0). Differences in body temperature were always compared only within the experimental day with the pre-drug time as control to one post-drug time.

## NC(=O)N1c2ccccc2C=Cc2ccccc21 [carbamazepine]
PTZ induced seizures
  antiepileptic effect in PTZ test, in words: less effective
[1]
  effect on complete, late-stage or spontaneous kindled seizures, in words: suppresses complete amygdala-kindled seizures
  effect on development / early stages of kindled seizures, in words: ineffective in preventing their development

## O=C1NC(=O)C(c2ccccc2)(c2ccccc2)N1 [Phenytoin]
[1]
  effect on complete, late-stage or spontaneous kindled seizures, in words: effective block of spontaneous seizures
  effect on development / early stages of kindled seizures, in words: not seizures elicited during the early stages of kindling

## CN1C(=O)CN=C(c2ccccc2)c2cc(Cl)ccc21 [Diazepam]
[1]
  effect on complete, late-stage or spontaneous kindled seizures, in words: not effective during the late stages
  effect on development / early stages of kindled seizures, in words: effective in inhibiting the earlier stages of seizure development

## CC#CCC(CCC)C(=O)O (stereo not drawn) [2-propyl-4-liexynoic acid]
[2]; mean (X) of 8 kindled rats, control mean 48.50
  afterdisch.thresh. (ADT; μA): 126.25 μA
[2]; mean of 8 rats, control mean 5.00
  seizure severity (SS; score): 3.63 score
[2]; mean of 8 rats, control mean 83.00
  seizure duration1 (SD1; sec): 46.50 s
[2]; mean of 8 rats, control mean 86.00
  afterdisch.dur.1 (ADD1;sec): 62.75 s
[2]; mean of 8 rats, control mean 86.88
  afterdisch.dur.2 (ADD2; sec): 62.75 s
[2]; mean of 8 rats, control mean 258.75
  seizure duration2 (SD2; sec): 105.63 s
[3]
  rotarod-test, day of exper.: 0%
Rectal body temperature
  BODY TEMP. (° C.) day of exper. 13′ post appl.: 38.31 °C

From patent US6458840B2, “Use of valproic acid analog for the treatment and prevention of migraine and affective illness” (American Biogenetic Sciences, Inc., priority 1998, dated 2002)
